Key:
IGF-1R = target: T1, IGF-1R (Homo sapiens, UniProt P08069); assay: IGF-1R inhibitory activity (kinase reaction, time-resolved fluoroimmunoassay); assay type: biochemical; conditions: test compound 10 μmol/L
T1 construct: purchased Upstate Co. 14-465
Method: The IGF-1R inhibitory activity was measured in the following manner.
As IGF-1R, active recombinant enzyme (Catalog No. 14-465) purchased from Upstate Co., was used. To 96 well plate (FIA-PLATE BLACK 96 well FALT-BOTTOM HIGH BINDING, Greiner Bio-one, Catalog No. 655077) coated with NeutroAvidin (Pierce, Catalog No. 31000), biotinylated polyglutamic acid-tyrosine peptide (Nihon Schering K.K., Catalog No. 61GT0BAA) was immobilized and then blocked with 0.25% gelatin to be used as a plate for measuring the kinase reaction. Separately was prepared a solution containing at final concentrations, IGF-1R (200 μg/L), Tris.HCl(pH 7.5)(20 mmol/L), Na3VO4(0.1 mmol/L), MgCl2(1 mmol/L), MnCl2(10 mmol/L), ATP(10 mmol/L), 2-mercaptoethanol (0.04%), BSA(Bovine Serum Albumin) (0.1%), DMSO(0.1%), test compound (10 μmol/L). The solution (each 50 μL) was added to the well of the plate for measuring the kinase reaction and then, enzyme reaction was performed for 30 minutes at 24° C. The plate was washed with TBS-T [10 mmol/L Tris Cl (pH 7.5), 150 mmol/L NaCl, 0.05% Tween 20 (Bio-Rad, Catalog No. 170-6531)] 4 times, then reacted with europium-labeled anti-phosphotyrosine antibody, further washed with TBS-T 4 times and then, measured with time-resolved fluoroimmunoassay (excitation wavelength 340 nm, measuring wavelength 615 nm). The value of a well to which the test compound had not been added was considered as 100% and that of a well where the enzyme and the test compound had not been added was considered as 0%. The relative activity (%) of the well which was added with enzyme and the test compound was measured and by subtracting the calculated value from 100, IGF-1R inhibitory activity of the test compound (%) was determined.

NCI-H929 = assay: Cytostatic activity on human multiple myeloma cell line NCI-H929 (WST-1); assay type: cell-based; conditions: for inhibition at 10 µM: 10 μmol/L, read-out: cytostatic rate (%) H929 (10 μmol/L)
Method: The cytostatic rates of a test compound on human multiple myeloma cell lines NCI-H929 and KMS-11, were determined in the following manner.
For culturing NCI-H929, Roswell Park Memorial Institute's Medium (RPMI) 1640 (Gibco, Catalog No. 11875-093) containing 15% fetal bovine serum (Gibco, Catalog No. 10099-141), 1 mmol/L sodium pyruvate (Gibco, Catalog No. 11360-070), 10 mmol/L HEPES (Gibco, Catalog No. 15630-80), 4.5 g/L glucose (Sigma, Catalog No. G8769), 0.05 mmol/L 2-mercaptethanol (Nacalai Tesque, Catalog No. 21418-42) and penicillin/streptomycin (1:1) (Gibco, Catalog No. 15140-122) was used. For culturing KMS-11 cell, RPMI 1640 medium containing 10% fetal bovine serum and penicillin/streptomycin (1:1) was used. Each 80 μL of the NCI-H929 cell having a concentration of 1×10^5 cells/mL (or the KMS-11 cell having a concentration of 7.5×10^4 cells/mL) was inoculated to wells of a TC MICROWELL 96U plate (Nalge Nunc International, Catalog No. 163320) and was cultured in a 5% carbon dioxide gas incubator at 37° C. for 24 hours. Each 20 μL of a solution of the test compound in dimethyl sulfoxide (DMSO) which was prepared to make the final concentration to 1 μmol/L or 10 μmol/L, was added to each well. Each 20 μL of DMSO was added to the control well and the blank well to a final concentration of 0.1%. After adding the test compound, the cells were incubated in a 5% carbon dioxide gas incubator at 37° C. for 72 hours except for the blank well. After adding 20 μL of WST-1 reagent {4-[3-(4-iodophenyl)-2-(4-nitrophenyl)-2H-5-tetrazolio]-1,3-benzene disulfonate sodium salt} (Roche Diagnostics K.K., Catalog No. 1644807), which was diluted to 50% by RPMI medium to each well, the cells were further incubated at 37° C. for 2 hours. Then, the absorbances at 450 nm (reference wavelength: 690 nm) were measured with a microplate spectrophotometer SPECTRA max 340PC (Molecular Devices Corporation). The relative growth (%) of a well to which the test compound had been added and cultured for 72 hours was determined while setting the absorbance of a well to which not the test compound but DMSO alone had been added and cultured for 72 hours (control) as 100% and that of a well where the drugs are added (blank) as 0%. The cytostatic rate (%) of the test compound was determined by subtracting the calculated relative growth from 100.

[1] = Homo sapiens, NCI-H929, 72 h, 72 hours
[2] = IGF-1R active recombinant enzyme

T1 sequence (P08069 959-1367 limits assumed): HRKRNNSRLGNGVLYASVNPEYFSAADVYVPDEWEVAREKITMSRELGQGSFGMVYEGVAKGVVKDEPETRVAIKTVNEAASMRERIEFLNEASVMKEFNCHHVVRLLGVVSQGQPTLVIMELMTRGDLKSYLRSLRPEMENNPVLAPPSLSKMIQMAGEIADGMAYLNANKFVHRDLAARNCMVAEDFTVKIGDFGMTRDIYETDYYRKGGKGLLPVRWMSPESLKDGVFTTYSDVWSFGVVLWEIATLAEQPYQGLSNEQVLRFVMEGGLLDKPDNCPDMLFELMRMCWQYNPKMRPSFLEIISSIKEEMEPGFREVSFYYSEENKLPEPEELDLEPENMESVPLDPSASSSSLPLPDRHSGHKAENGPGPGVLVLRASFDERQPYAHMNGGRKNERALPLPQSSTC

Compound | inhibition at 10 µM (IGF-1R; [2]) [%] | also measured
COc1cc(N)c(/C=C/c2n[nH]c3ccccc23)cc1OC [Compound 92, (E)-2-[2-(1H-indazol-3-yl)vinyl]-4,5-dimethoxyphenylamine] | – | inhibition at 10 µM (IGF-1R): 66.5%; inhibition at 10 µM (NCI-H929; [1]): 70.1%
Cn1cccc1C(=O)Nc1cc2c(cc1/C=C/c1n[nH]c3ccccc13)OCO2 [Compound 131, (E)-N-{6-[2-(1H-indazol-3-yl)vinyl]benzo[1,3]dioxol-5-yl}-1-methylpyrrole-2-carboxamide] | – | inhibition at 10 µM (IGF-1R): 94.1%; inhibition at 10 µM (NCI-H929; [1]): 122%
Cc1ccsc1C(=O)Nc1ccc(OCCN2CCOCC2)cc1/C=C/c1n[nH]c2ccccc12 [Compound 103, (E)-N-{2-[2-(1H-indazol-3-yl)vinyl]-4-(2-morpholinoethoxy)phenyl}-3-methylthiophene-2-carboxamide] | – | inhibition at 10 µM (IGF-1R): 97%; inhibition at 10 µM (NCI-H929; [1]): 130%
COC1CCN(C(=O)c2ccc(/C=C/c3n[nH]c4ccccc34)c(N3Cc4c(N)cccc4C3=O)c2)CC1 [Compound 310, (E)-4-amino-2-{2-[2-(1H-indazol-3-yl)vinyl]-5-(4-methoxypiperidin-1-ylcarbonyl)phenyl}-2,3-dihydroisoindole-1-one] | 97.9 | inhibition at 1 µM (NCI-H929; Homo sapiens, NCI-H929, 72 h, NCI-H929 cells, test compound 1 μmol/L, WST-1, read-out: cytostatic rate (%) H929 (1 μmol/L)): 105%
O=C(Nc1cc(C(=O)N2CCN(CCO)CC2)ccc1/C=C/c1n[nH]c2ccccc12)c1ccccc1 [Compound 290] | – | inhibitory activity (%) at 10 μmol/L (IGF-1R; [2]): 95.7%; cytostatic rate (%) H929 (1 μmol/L) (NCI-H929; 1 μmol/L, 72 hours): 93.8%
Cc1ccsc1C(=O)Nc1cc(C(=O)O)ccc1/C=C/c1n[nH]c2ccccc12 [Compound 98, (E)-4-[2-(1H-indazol-3-yl)vinyl]-3-[(3-methylthiophen-2-ylcarbonyl)amino]benzoic acid] | – | inhibition at 10 µM (IGF-1R): 98.4%; inhibition at 10 µM (NCI-H929; [1]): 66.3%
CC(=O)N1CCN(c2ccccc2/C=C/c2n[nH]c3ccccc23)CC1 [Compound 133, (E)-4-acetyl-1-{2-[2-(1H-indazol-3-yl)vinyl]phenyl}piperazine] | 70.4 | inhibition at 10 µM (NCI-H929; [1]): 62.9%
O=C1c2cccnc2C(=O)N1c1ccccc1/C=C/c1n[nH]c2ccccc12 [Compound 205, (E)-6-{2-[2-(1H-indazol-3-yl)vinyl]phenyl}pyrrolo[3,4-b]pyridine-5,7-dione] | 89.8 | –
O=C(Nc1cc(C(=O)N2CCN(CCCO)CC2)ccc1/C=C/c1n[nH]c2ccccc12)c1ccco1 [Compound 291, (E)-N-{5-[4-(3-hydroxypropyl)piperazin-1-ylcarbonyl]-2-[2-(1H-indazol-3-yl)vinyl]phenyl}furan-2-carboxamide] | 97.7 | –
CCOC(=O)c1cnc(Nc2ccccc2/C=C/c2n[nH]c3ccccc23)s1 [Compound 165, (E)-2-{2-[2-(1H-indazol-3-yl)vinyl]phenylamino}thiazole-5-carboxylic acid ethylester] | 93.8 | –
Cc1c(C(=O)Nc2ccccc2/C=C/c2n[nH]c3ccccc23)sc2ccccc12 [Compound 351, (E)-{2-[2-(1H-indazol-3-yl)vinyl]phenyl}-3-methylbenzo[b]thiophene-2-carboxamide] | – | inhibitory activity (%) at 10 μmol/L (IGF-1R; [2]): 99.1%
O=C(Nc1ccccc1/C=C/c1n[nH]c2ccccc12)c1ccccc1[N+](=O)[O-] [Compound 74, (E)-N-{2-[2-(1H-indazol-3-yl)vinyl]phenyl}-2-nitrobenzamide] | 97.6 | –
CCOC(=O)c1csc(Nc2ccccc2/C=C/c2n[nH]c3ccccc23)n1 [Compound 169, (E)-2-{2-[2-(1H-indazol-3-yl)vinyl]phenylamino}thiazole-4-carboxylic acid ethyl ester] | 88.4 | –
O=C(c1ccc(/C=C/c2n[nH]c3ccccc23)c(N2C(=O)c3ccccc3C2=O)c1)N1CCOCC1 [Compound 276, (E)-N-{2-[2-(1H-indazol-3-yl)vinyl]-5-(morpholin-4-ylcarbonyl)phenyl}isoindole-1,3-dione] | 99.6 | –
CS(=O)(=O)c1ccc(C(=O)Nc2ccccc2/C=C/c2n[nH]c3ccccc23)cc1 [Compound 215, (E)-N-{2-[2-(1H-indazol-3-yl)vinyl]phenyl}-4-methanesulfonylbenzamide] | 81.2 | –
O=C1c2ccccc2C(=O)N1c1cc(N2CCN(CCO)CC2)ccc1/C=C/c1n[nH]c2ccccc12 [Compound 299, (E)-2-{5-[4-(2-hydroxyethyl)piperazin-1-yl]-2-[2-(1H-indazol-3-yl)vinyl]phenyl}isoindole-1,3-dione] | 92.9 | –
C(=C\c1n[nH]c2ccccc12)/c1ccccc1-n1ccc(CN2CCOCC2)c1 [Compound 182, (E)-3-{2-[2-(3-morpholin-4-ylmethylpyrrol-1-yl)phenyl]vinyl}-1H-indazole] | 97.9 | –
Nc1cccc2c1CN(c1cc(C(=O)N3CCOCC3)ccc1/C=C/c1n[nH]c3ccccc13)C2=O [Compound 324, (E)-4-amino-2-{2-[2-(1H-indazol-3-yl)vinyl]-5-(morpholin-4-ylcarbonyl)phenyl}-2,3-dihydroisoindole-1-one] | 102 | –
OCCNCc1ccn(-c2ccccc2/C=C/c2n[nH]c3ccccc23)c1 [Compound 187, (E)-2-(1-{2-[2-(1H-indazol-3-yl)vinyl]phenyl}-1H-pyrrol-3-ylmethylamino)ethanol] | 98.2 | –
O=C(Nc1ccccc1/C=C/c1n[nH]c2ccccc12)c1ccc([N+](=O)[O-])s1 [Compound 51, (E)-N-{2-[2-(1H-indazol-3-yl)vinyl]phenyl}-5-nitrothiophene-2-carboxamide] | 100 | –
Cc1ccc2c(c1)C(=O)N(c1ccccc1/C=C/c1n[nH]c3ccccc13)C2=O [Compound 197, (E)-2-{2-[2-(1H-indazol-3-yl)vinyl]phenyl}-5-methylisoindole-1,3-dione] | 101 | –
Cc1oncc1C(=O)Nc1ccccc1/C=C/c1n[nH]c2ccccc12 [Compound 72, (E)-N-{2-[2-(1H-indazol-3-yl)vinyl]phenyl}-5-methylisoxazole-4-carboxamide] | 82.7 | –
CN(C)CCN(C)Cc1ccn(-c2ccccc2/C=C/c2n[nH]c3ccccc23)c1 [Compound 188, (E)-N-(1-{2-[2-(1H-indazol-3-yl)vinyl]phenyl}-1H-pyrrol-3-ylmethyl)-N,N′,N′-trimethylethane-1,2-diamine] | 99.4 | –
CN1CCN(C(=O)c2ccc(/C=C/c3n[nH]c4ccccc34)c(N3Cc4cccc(N)c4C3=O)c2)CC1 [Compound 316, (E)-7-amino-2-{2-[2-(1H-indazol-3-yl)vinyl]-5-(4-methylpiperazin-1-ylcarbonyl)phenyl}-2,3-dihydroisoindole-1-one] | 103 | –
CN(C)C(=O)c1ccc(/C=C/c2n[nH]c3ccccc23)c(N2C(=O)c3ccccc3C2=O)c1 [Compound 285, (E)-3-(1,3-dioxo-1,3-dihydroisoindol-2-yl)-4-[2-(1H-indazol-3-yl)vinyl]-N,N-dimethylbenzamide] | 99 | –
O=C1c2ccc(Cl)cc2C(=O)N1c1ccccc1/C=C/c1n[nH]c2ccccc12 [Compound 196, (E)-5-chloro-2-{2-[2-(1H-indazol-3-yl)vinyl]phenyl}isoindole-1,3-dione] | 99.8 | –
